According to EP0514540B1, “PYRROLO 2,3-d]PYRIMIDINE DERIVATIVE, PROCESS FOR PREPARING THE SAME, AND PHARMACEUTICAL PREPARATION COMPRISING THE DERIVATIVE AS ACTIVE INGREDIENT” (TEIJIN LIMITED, priority 1989, dated 1991):

Experiments:
hypoxemia model animals [1] = assay: Effect on partial pressure of gases in arterial blood, injection system, Method B (acetic acid-induced hypoxemia); type: in vivo, Male Wister strain rats; details: 2.0% acetic acid intratracheal 0.6 ml/kg, PaO2 60-70 mmHg, intravenous continuous 0.1 mg/kg/min, after minus before administration
Description: (§1) Example 59: Effect on Partial Pressure Value of Gases in Arterial Blood (Injection system)
Male Wister strain rats (body about 300 g) were anesthetized with halothane inhalant, and then 2.0% acetic acid was intratrachealy injected at 0.6 ml/kg to induce a respiratory insufficiency. The animals were intra-peritoneally anesthetized with urethane-α-chloralose, and a cannula was inserted into the femoral artery. After the hypoxemic state (PaO2: 60-70 mmHg) was observed a compound in accordance with the present invention (test substance) was intravenously injected into these hypoxemia model animals by a continuous manner (0.1 mg/kg/min), and then a partial pressure value of gases (PaO2, PaCO2) in arterial blood were immediately determined.

hypoxemia model animals [2] = assay: Effect on partial pressure of gases in arterial blood, injection system, Method A (carbon powder-induced hypoxemia); type: in vivo, Male Wister strain rats; details: carbon powder intratracheal, PaO2 50-60 mmHg, intravenous continuous 0.1 mg/kg/min., 10 min, after minus before administration
Description: as §1
Male Wister strain rats (body weight about 300 g) were anesthetized intra-peritoneally with urethane, and a cannula was inserted into the respiratory tract and the femoral artery, respectively. A suspension (30-100 µm, 10 mg/ml) of carbon powder in a corn oil was intratrachealy injected to induce a hypoxemia state (PaO2; 50-60 mmHg). A compound in accordance with the present invention was intravenously injected into these hypoxemia model animals by a continuous manner (0.1 mg/kg/min., 10 min), and then a partial pressure value of gases (PaO2, PaCO2) in arterial blood were immediately determined.

hypoxemia state = assay: Effect on partial pressure of gases in arterial blood, oral administration system (acetic acid-induced hypoxemia); type: in vivo, Male Wistar strain rats; details: orally administered; 2.0% acetic acid intratracheal 0.8 ml/kg; 60 min. after the administration
Description: Example 60: Effect on Partial Pressure Value of Gases in Arterial Blood (Oral Administration System)
Male Wistar strain rats (body weight about 250 g) fasted overnight were anesthetized with halothane inhalant, and then a cannula was inserted into the femoral artery. After the animals recovered from the anesthesia, they were again anesthetized with halothane inhalant, and then 2.0% acetic acid was intratrachealy injected at 0.8 ml/kg to induce a hypoxemia state. After the hypoxemic state was observed over about 60 min., a compound in accordance with the present invention (test substance) was orally administered to the animals. On 60 min. after the administration, the partial pressure value of gases (PaO2, PaCO2) in arterial blood were determined.

Row | SMILES | Activity for Decreasing PaCO2 ΔPaCO2 (hypoxemia model animals [1]) | Activity for Increasing PaO2 ΔPaO2 (hypoxemia model animals [1]) | Activity for Decreasing PaCO2 ΔPaCO2 (hypoxemia model animals [2]) | Activity for Increasing PaO2 ΔPaO2 (hypoxemia model animals [2]) | Activity for Decreasing PaCO2 ΔPaCO2 (hypoxemia state) | Activity for Increasing PaO2 ΔPaO2 (hypoxemia state)
1 | C=CCNc1nc(NCCc2ccccc2)c2ccn(C)c2n1 [Compound 164] | -19.2 mmHg | +15.4 mmHg | – | – | – | –
2 | C=CCNc1nc(N2CCN(C(c3ccc(F)cc3)c3ccc(F)cc3)CC2)c2ccn(C)c2n1 [Compound 133] | – | – | -0.6 mmHg | +6.9 mmHg | – | –
3 | C=CCNc1nc(N2CCC(OC(C)=O)CC2)c2ccn(C)c2n1 [Compound 119] | – | – | -2.6 mmHg | +7.1 mmHg | – | –
4 | C=CCNc1nc(NC2CCCCC2)c2ccn(C)c2n1 [Compound 150] | -18.6 mmHg | +18.4 mmHg | – | – | – | –
5 | C=CCNc1nc(N2CCN(C(c3ccc(F)cc3)c3ccc(F)cc3)CC2)c2ccn(CC=C)c2n1 [Compound 143] | – | – | +1.1 mmHg | +5.0 mmHg | – | –
6 | C=CCNc1nc(N(C)C)c2ccn(C)c2n1 [Compound 165] | +1.1 mmHg | +7.9 mmHg | – | – | ± (ΔPaCO2 ±: 0 - -3 mmHg) | + (ΔPaO2 +: +3 - +6 mmHg)
7 | C=CCNc1nc(NC(C)c2ccccc2)c2ccn(C)c2n1 (racemic) [Compound 156, (±)-2-allylamino-7-methyl-4-(1-phenylethyl-amino)-7H-pyrrolo[2,3-d]pyrimidine] | -9.1 mmHg | +19.7 mmHg | – | – | + (+: -3 - -6 mmHg) | + +
8 | C=CCNc1nc(N(C)CCc2ccccc2)c2ccn(C)c2n1 [Compound 167] | -6.6 mmHg | +11.3 mmHg | – | – | – | –
9 | C=CCNc1nc(N2CCOCC2)c2ccn(C)c2n1 [Compound 124] | -4.0 mmHg | +5.7 mmHg | – | – | + (+: -3 - -6 mmHg) | + (ΔPaO2 +: +3 - +6 mmHg)
10 | C=CCNc1nc(NC2CCCc3ccccc32)c2ccn(C)c2n1 (centres unmarked) [Compound 162] | -17.2 mmHg | +18.1 mmHg | – | – | – | –
